Experiment [1] addresses T1, Peroxisome proliferator-activated receptor gamma (Homo sapiens, UniProt P37231).
T1 sequence (P37231 whole entry): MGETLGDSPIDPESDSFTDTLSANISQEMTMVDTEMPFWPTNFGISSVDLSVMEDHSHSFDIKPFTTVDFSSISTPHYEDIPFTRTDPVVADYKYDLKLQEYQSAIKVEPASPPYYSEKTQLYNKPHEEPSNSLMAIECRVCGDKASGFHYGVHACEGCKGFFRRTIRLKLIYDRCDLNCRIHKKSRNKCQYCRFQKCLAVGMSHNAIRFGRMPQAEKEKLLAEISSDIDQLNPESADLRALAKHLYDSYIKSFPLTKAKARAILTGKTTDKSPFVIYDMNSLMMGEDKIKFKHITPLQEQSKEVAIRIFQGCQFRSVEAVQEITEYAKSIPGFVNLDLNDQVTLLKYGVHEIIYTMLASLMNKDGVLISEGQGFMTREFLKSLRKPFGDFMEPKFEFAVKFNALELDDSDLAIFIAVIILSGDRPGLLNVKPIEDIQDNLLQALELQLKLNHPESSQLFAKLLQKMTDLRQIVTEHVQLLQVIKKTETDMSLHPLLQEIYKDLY
Description: Agonist activity at human PPARgamma in U2OS cells by transactivation assay

For experiment [2], the target named is T2, Peroxisome proliferator-activated receptor alpha (Homo sapiens) (UniProt Q07869).
T2 sequence (whole entry): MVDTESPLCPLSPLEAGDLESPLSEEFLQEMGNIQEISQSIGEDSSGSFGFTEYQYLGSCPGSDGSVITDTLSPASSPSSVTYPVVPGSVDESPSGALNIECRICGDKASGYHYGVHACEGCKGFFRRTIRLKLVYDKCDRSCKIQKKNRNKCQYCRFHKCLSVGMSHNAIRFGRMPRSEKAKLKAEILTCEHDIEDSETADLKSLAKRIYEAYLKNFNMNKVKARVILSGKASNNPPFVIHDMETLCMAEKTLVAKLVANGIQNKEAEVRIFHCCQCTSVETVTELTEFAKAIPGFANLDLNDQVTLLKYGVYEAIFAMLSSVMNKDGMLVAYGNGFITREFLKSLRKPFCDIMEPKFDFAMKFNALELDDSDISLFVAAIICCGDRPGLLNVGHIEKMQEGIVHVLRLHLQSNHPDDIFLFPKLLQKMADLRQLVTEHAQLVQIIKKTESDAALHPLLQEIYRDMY
Kind of experiment: Agonist activity at human PPARalpha in U2OS cells by transactivation assay relative to WY-14643. It is filed as functional, cell-based.

Experiment [3] has as its target T3, Peroxisome proliferator-activated receptor alpha (Homo sapiens, UniProt Q07869).
T3 sequence (Q07869 whole entry): T2 sequence (whole entry)
Kind of experiment: Agonist activity at human PPARalpha in U2OS cells by transactivation assay.

Active and inactive are the calls of the source. No cut-off for these calls is given here.

Data on 21 compounds can be found in ChEMBL document CHEMBL1154459, “Synthesis and evaluation of a series of benzopyran derivatives as PPAR alpha/gamma agonists” (Eur J Med Chem, 2008).

By EC50 is commonly meant the midpoint of the concentration-response curve.

In the case of `COC(=O)C1Cc2ccc(OCCc3nc(-c4ccc(C(C)(C)C)cc4)oc3C)cc2OC1=O` (stereo unspecified), the values for the EC50 in experiment [1] and in experiment [3] were 250 nM and 100 nM, respectively. Besides, in experiment [2], the %max amounted to 26%.
As for `COC(=O)c1cc2ccc(OCCc3nc(-c4ccc(OC)cc4)oc3C)cc2oc1=O`, the values for the concentration for a half-maximal effect (EC50) in experiment [1] and in experiment [3] were 1 nM and 5250 nM, respectively. In experiment [2], the %max turned out to be 163%.
Taken in the same sequence, the figures for `COC(=O)C1Cc2ccc(OCCc3nc(-c4cccc(C)c4)oc3C)cc2OC1=O` (stereo unspecified) were 1 nM, 1550 nM and 83%.
For `COC(=O)c1cc2ccc(OCCc3nc(-c4cccc([N+](=O)[O-])c4)oc3C)cc2oc1=O`, the EC50 was 3550 nM in experiment [1] and “Not Active” in experiment [3] (u2os). For the same compound, the “%max” value in experiment [2] is “inactive”.
As for `COC(=O)c1cc2ccc(OCCc3nc(-c4ccc(F)cc4)oc3C)cc2oc1=O`, the EC50 in experiment [1] stood at 1620 nM; in experiment [3], 70 nM. The %max in experiment [2] was 44%.
For `COC(=O)C1Cc2ccc(OCCc3nc(-c4ccc(-c5ccccc5)cc4)oc3C)cc2OC1=O` (stereo unspecified), in that order: 1120 nM, 910 nM and 68%.
In the case of `COC(=O)c1cc2ccc(OCCc3nc(-c4ccc(C)cc4)oc3C)cc2oc1=O`, the EC50 in experiment [1] and in experiment [3] was 1 nM in each case. This compound also yielded a %max in experiment [2] of 65%.
In the case of `COC(=O)C1Cc2ccc(OCCc3nc(-c4cccc(C(F)(F)F)c4)oc3C)cc2OC1=O` (stereo unspecified), the EC50 in experiment [1] came to 160 nM; in experiment [3], 170 nM. Besides, in experiment [2], the %max came to 23%.
Taken in the same sequence, the figures for `COC(=O)c1cc2ccc(OCCc3nc(-c4cccc(C(F)(F)F)c4)oc3C)cc2oc1=O` were 420 nM, 1200 nM and 21%.
For the compound `COC(=O)C1Cc2ccc(OCCc3nc(-c4ccc(F)cc4)oc3C)cc2OC1=O` (stereo unspecified), the values for the EC50 in experiment [1] and in experiment [3] were 1 nM and 100 nM, respectively. The %max in experiment [2] was 98%.
With `COC(=O)C1Cc2ccc(OCCc3nc(-c4ccccc4)oc3C)cc2OC1=O` (stereo unspecified), the EC50 in experiment [1] was determined as 130 nM; in experiment [3], 140 nM. The same compound showed a %max in experiment [2] of 42%.
For the compound `COC(=O)c1cc2ccc(OCCc3nc(-c4ccc(C(C)(C)C)cc4)oc3C)cc2oc1=O`, the EC50 in experiment [1] was 1740 nM; in experiment [3], 2290 nM. The same compound yielded a %max in experiment [2] of 90%.
`COC(=O)C1Cc2ccc(OCCc3nc(-c4cccc(OC)c4)oc3C)cc2OC1=O` (stereo unspecified): the values for the EC50 in experiment [1] and in experiment [3] were 100 nM and 1200 nM, respectively. In experiment [2], this compound showed a %max of 23%.
Taken in the same sequence, the figures for `COC(=O)C1Cc2ccc(OCCc3nc(-c4cccc(F)c4)oc3C)cc2OC1=O` (stereo unspecified) were 170 nM, 720 nM and 30%.
With `Cc1cccc(Nc2cc(Cl)nc(SCC(=O)O)n2)c1C`, the %max in experiment [2] came to 100%.
For `COC(=O)c1cc2ccc(OCCc3nc(-c4cccc(F)c4)oc3C)cc2oc1=O`, the 50% effective concentration (EC50) in experiment [1] stood at 960 nM; in experiment [3], 1290 nM. In experiment [2], the %max turned out to be 38%.
Turning to `COC(=O)C1Cc2ccc(OCCc3nc(-c4ccc(C)cc4)oc3C)cc2OC1=O` (stereo unspecified), the EC50 in experiment [1] came out at 1 nM; in experiment [3], 910 nM. In addition, the %max in experiment [2] turned out to be 94%.
Taken in the same sequence, the figures for `COC(=O)C1Cc2ccc(OCCc3nc(-c4ccc(OC)cc4)oc3C)cc2OC1=O` (stereo unspecified) were 1 nM, 1740 nM and 96%.
For `COC(=O)c1cc2ccc(OCCc3nc(-c4ccc(-c5ccccc5)cc4)oc3C)cc2oc1=O`, the EC50 in experiment [1] is 1260 nM; in experiment [3], 1230 nM. In experiment [2], this compound returned a %max of 116%.
On to `COC(=O)c1cc2ccc(OCCc3nc(-c4cccc(OC)c4)oc3C)cc2oc1=O`, for which the EC50 in experiment [1] came to 350 nM; in experiment [3] it was 1620 nM. For the same compound, the %max in experiment [2] amounted to 100%.
In the case of `COC(=O)c1cc2ccc(OCCc3nc(-c4cccc(C)c4)oc3C)cc2oc1=O`, the EC50 in experiment [1] was 1 nM; in experiment [3] (u2os), “Not Active”. In addition, the “%max” value in experiment [2] is “inactive”.
